Source: US20240245677A1, “SELECTED COMPOUNDS FOR TARGETED DEGRADATION OF BRD9” (C4 THERAPEUTICS, INC., priority 2021, published 2024)

Legend:
[1] = Variable temperature XRPD (VT-XRPD) experiments; type: physicochemical
Procedure: To investigate form conversion behavior, variable temperature XRPD experiments were conducted for hydrate Pattern A, hydrate Pattern C, hydrate Pattern F and hetero-solvate Pattern L.
Based on DSC and TGA results, variable temperature XRPD was conducted for Pattern A, at different temperatures, including 25° C., 110° C. and 25° C.
Based on DSC and TGA results, variable temperature XRPD was conducted for Pattern B, at different temperatures, including 25° C., 80° C., 130° C. and 25° C. The sample after heating-cooling was placed at 25° C./75% RH condition for 1 day and investigated by XRPD.
Based on DSC and TGA results, variable temperature XRPD was conducted for Pattern C, at different temperatures, including 25° C., 110° C. and 25° C.
Based on DSC and TGA results, variable temperature XRPD was conducted for Pattern F at different temperatures, including 25° C., 110° C. and 25° C. The sample after heating-cooling was placed at 25° C./75% RH condition for 1 day and investigated by XRPD.
Based on DSC and TGA results, variable temperature XRPD was conducted for Pattern L, at different temperatures, including 25° C., 100° C., 140° C., 180° C. and 25° C. The sample after heating-cooling was placed at 25° C./92% RH condition for 24 h and investigated by XRPD.

IKZF1 = target: T1, IKZF1 (Homo sapiens, UniProt Q13422+Q96SW2); experiment: IKZF1 HiBiT degradation assay in NCIH929.11 cells; type: cell-based
T1 construct: CRISPR-edited to endogenously express HiBiT tagged IKZF1; host or cells: NCIH929.11
T1 sequence (Q13422 whole entry): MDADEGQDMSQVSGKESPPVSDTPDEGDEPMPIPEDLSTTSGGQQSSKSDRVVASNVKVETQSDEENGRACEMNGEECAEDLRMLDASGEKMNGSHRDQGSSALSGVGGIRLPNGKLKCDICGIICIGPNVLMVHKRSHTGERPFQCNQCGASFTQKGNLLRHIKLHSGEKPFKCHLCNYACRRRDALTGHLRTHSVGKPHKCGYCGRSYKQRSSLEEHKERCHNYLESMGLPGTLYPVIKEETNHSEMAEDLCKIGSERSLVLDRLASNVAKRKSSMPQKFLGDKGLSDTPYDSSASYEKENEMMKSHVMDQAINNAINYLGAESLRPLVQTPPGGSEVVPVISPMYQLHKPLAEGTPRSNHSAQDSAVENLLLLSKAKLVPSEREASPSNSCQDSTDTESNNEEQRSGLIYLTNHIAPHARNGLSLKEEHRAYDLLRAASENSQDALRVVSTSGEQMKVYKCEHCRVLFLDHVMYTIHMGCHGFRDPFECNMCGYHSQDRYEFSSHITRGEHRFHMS
T1 sequence (Q96SW2 whole entry): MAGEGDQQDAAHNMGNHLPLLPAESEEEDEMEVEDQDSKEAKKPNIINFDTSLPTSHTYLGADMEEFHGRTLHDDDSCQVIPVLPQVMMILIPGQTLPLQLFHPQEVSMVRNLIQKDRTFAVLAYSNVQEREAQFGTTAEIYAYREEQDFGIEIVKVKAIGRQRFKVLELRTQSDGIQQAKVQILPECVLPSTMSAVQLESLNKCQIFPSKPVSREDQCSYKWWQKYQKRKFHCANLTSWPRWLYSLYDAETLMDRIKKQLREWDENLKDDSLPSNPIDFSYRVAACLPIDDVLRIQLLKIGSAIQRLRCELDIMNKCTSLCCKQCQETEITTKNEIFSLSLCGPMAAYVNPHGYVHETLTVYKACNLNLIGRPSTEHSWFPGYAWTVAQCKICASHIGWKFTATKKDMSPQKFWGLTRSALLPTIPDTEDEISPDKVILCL
T1 sequence (Q16531 2-1140 partner limits assumed): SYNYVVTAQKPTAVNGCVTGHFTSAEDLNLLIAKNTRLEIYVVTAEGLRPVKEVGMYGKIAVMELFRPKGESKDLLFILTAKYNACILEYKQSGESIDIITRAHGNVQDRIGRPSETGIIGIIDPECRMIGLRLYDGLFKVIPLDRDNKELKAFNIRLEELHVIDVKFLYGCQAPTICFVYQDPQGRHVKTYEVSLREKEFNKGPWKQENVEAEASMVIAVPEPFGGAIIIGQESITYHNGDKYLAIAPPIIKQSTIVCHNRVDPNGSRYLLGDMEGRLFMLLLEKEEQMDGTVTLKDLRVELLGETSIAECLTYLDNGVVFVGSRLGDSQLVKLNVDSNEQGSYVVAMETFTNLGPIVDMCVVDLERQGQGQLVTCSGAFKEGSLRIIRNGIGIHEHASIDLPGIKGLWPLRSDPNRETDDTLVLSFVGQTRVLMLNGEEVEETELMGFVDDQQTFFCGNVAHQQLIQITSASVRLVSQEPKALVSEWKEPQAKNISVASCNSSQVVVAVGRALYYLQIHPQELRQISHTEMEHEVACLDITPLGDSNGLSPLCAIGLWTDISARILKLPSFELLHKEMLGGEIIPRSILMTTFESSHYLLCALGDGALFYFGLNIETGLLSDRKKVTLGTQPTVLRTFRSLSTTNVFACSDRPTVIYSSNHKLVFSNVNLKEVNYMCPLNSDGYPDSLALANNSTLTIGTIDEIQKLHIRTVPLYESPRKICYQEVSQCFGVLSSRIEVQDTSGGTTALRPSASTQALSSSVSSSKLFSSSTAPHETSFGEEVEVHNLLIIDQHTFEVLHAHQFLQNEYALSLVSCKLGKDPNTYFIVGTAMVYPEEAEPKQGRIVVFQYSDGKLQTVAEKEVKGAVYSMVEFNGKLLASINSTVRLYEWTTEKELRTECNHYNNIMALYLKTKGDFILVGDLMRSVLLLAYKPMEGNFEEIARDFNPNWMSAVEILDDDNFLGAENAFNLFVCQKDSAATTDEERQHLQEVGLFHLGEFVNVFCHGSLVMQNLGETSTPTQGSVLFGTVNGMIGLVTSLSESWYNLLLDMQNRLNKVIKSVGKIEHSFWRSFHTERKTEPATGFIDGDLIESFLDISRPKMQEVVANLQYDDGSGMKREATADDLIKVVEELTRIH

SALL4 = target: T2, SALL4 (Homo sapiens, UniProt Q96SW2+Q9UJQ4); experiment: SALL4 HiBiT degradation assay in KELLY.2 cells; type: cell-based; conditions: read-out: Mean Emax (%) ± SD
T2 construct: CRISPR-edited to endogenously express HiBiT tagged SALL4; host or cells: KELLY.2
T2 sequence (Q9UJQ4 whole entry): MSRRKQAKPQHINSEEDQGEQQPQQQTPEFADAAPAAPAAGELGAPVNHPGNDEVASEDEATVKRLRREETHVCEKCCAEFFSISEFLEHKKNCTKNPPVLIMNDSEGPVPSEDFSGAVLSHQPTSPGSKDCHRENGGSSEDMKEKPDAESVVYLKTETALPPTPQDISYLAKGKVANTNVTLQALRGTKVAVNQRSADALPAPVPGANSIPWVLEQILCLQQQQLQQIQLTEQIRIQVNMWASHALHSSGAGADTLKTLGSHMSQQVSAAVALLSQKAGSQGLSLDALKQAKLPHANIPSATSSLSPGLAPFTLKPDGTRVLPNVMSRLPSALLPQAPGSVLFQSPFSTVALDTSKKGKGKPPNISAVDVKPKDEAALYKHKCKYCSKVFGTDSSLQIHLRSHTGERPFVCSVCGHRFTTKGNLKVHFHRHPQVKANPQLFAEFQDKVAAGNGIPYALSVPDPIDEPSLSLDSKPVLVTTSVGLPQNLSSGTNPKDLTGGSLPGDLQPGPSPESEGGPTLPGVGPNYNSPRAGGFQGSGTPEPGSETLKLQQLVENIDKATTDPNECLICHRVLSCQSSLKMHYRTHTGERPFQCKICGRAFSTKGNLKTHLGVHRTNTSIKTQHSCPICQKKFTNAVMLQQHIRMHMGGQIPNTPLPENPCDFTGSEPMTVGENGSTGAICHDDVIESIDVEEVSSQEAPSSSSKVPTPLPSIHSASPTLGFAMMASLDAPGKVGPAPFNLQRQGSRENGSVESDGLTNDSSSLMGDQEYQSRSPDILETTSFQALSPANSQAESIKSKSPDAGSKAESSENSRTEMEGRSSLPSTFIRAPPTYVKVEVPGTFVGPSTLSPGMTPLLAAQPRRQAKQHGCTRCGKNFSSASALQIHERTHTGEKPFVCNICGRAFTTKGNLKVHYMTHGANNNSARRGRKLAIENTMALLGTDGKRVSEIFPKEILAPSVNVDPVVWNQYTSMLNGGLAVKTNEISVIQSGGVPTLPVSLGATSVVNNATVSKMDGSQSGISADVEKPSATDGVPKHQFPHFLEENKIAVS
T2 sequence (Q96SW2 whole entry): as the sequence (Q96SW2 whole entry) above
T2 sequence (Q16531 2-1140 partner limits assumed): as the sequence (Q16531 2-1140 partner limits assumed) above
Text: Nano-Glo® HiBiT Lytic Assay System was purchased from Promega (Catalog No. N3050, Madison, WI, USA). […] The HiBiT polypeptide tag was introduced into the C-terminus of the endogenous SALL4 locus by CRISPR-Cas9 to produce the modified KELLY.2 cell line. The HiBiT polypeptide allows reconstitution of NanoBiT enzyme following cell lysis and addition of the complementing LgBiT polypeptide that activates substrate to produce a luminescent signal that is directly proportional to the amount of HiBiT-tagged SALL4.
KELLY.2 cells were routinely sub-cultured to maintain cell density between 30-80% confluence, not to exceed 10 passages. Cells were washed with PBS, trypsinized for 5 minutes at 37° C., and resuspended in fresh growth media without phenol red. […] Cell concentration was adjusted with growth media without phenol red to 2×10^5 cells/mL.
30 nL DMSO was transferred to all control wells.
30 μL of media was dispensed to column 24 as background positive control (P). Plates were spun briefly at 1000 rpm and cells were incubated at 37° C., 5% CO2 for 6 hours. Final concentration of DMSO was 0.1% for all samples.
Cellular SALL4 protein level was determined based on quantification of HiBiT using Nano-Glo® HiBiT Lytic Assay System (Promega). […] Cells treated in the absence of the test compound (0.1% DMSO vehicle) were the negative control (N) and wells containing only media were the positive control (P).
Percent response of compound-treated samples (T) were calculated by normalizing to the DMSO treated negative (N) controls on the same microtiter plate after background (i.e., positive control) signal subtraction:
Curve fit and DC50 (concentration that degrades 50% SALL4) determination was performed by 4 parametric logistic fit analysis using software such as GraphPad Prism software (GraphPad Software, LLC, San Diego, CA, USA). The fit was performed through minimization of the root mean squared error between observed and calculated values of the four-parameter logistic equation using the simplex optimizer of the Apache Commons Math library. […] DC50 values were computed as the concentrations where the fitted curves cross the 50% response level. Averages and standard deviations were computed from replicates of the experiment.

Structure (SMILES) | XRPD ([1]; 25° C. (start)) | XRPD ([1]; 25° C./50% RH hold 2 h) | XRPD ([1]; Cool to 25° C.) | XRPD ([1]; Heat to 110° C.) | XRPD ([1]; 25° C./92.5% RH hold 1 day) | XRPD ([1]; Heat to 100° C.) | degradation of IKZF1 induced (IKZF1; positive control, 6 hours) | Emax (IKZF1; read-out: Mean Emax (%) ± SD) [%] | Emax (SALL4) [%]
COc1cc(-c2cn(C)c(=O)c(C)c2C)cc(OC)c1CN1CC[C@H](N2CCN(c3ccc(N[C@H]4CCC(=O)NC4=O)cc3F)CC2)C(F)(F)C1 [Pattern C] | Pattern C | Pattern C | Metastable Pattern I | Metastable Pattern I |  |  |  |  | 
COc1cc(-c2cn(C)c(=O)c(C)c2C)cc(OC)c1CN1CC[C@H](N2CCN(c3ccc(N[C@H]4CCC(=O)NC4=O)cc3F)CC2)C(F)(F)C1 [Pattern F] | Pattern F |  | Pattern H | Pattern H |  |  |  |  | 
COc1cc(-c2cn(C)c(=O)c(C)c2C)cc(OC)c1CN1CC[C@H](N2CCN(c3ccc(N[C@H]4CCC(=O)NC4=O)cc3F)CC2)C(F)(F)C1 [Pattern L] | Pattern L |  | Pattern M |  | Pattern M | Pattern L |  |  | 
Nc1cccc2c1C(=O)N(C1CCC(=O)NC1=O)C2=O (centres unmarked) [Pomalidomide, reference compound] |  |  |  |  |  |  | 8000 | 20.8 ± 3.2 | 9.5 ± 1.5
